Experimental data as given in ChEMBL document CHEMBL4177567, “Antibiotic adjuvants - A strategy to unlock bacterial resistance to antibiotics” (Bioorg Med Chem Lett, 2017).
Values after ≈ are worked out from the molar mass of the structure shown.

Legend:
Beta-lactamase 1 = biological target: T1, Beta-lactamase 1 (Bacillus cereus, UniProt P00809); test: Inhibition of Bacillus cereus beta-lactamase […] using CENTA as substrate up to 30 mins by Lineweaver-Burk plot analysis
T1 sequence (P00809 whole entry): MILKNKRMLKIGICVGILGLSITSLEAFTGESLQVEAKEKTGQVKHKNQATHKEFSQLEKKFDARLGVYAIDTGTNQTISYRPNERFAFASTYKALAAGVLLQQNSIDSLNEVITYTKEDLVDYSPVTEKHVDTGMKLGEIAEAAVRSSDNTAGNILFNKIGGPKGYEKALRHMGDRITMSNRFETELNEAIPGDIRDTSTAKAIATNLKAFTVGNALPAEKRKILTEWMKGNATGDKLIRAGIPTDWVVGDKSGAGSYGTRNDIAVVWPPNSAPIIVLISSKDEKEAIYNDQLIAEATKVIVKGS

Acinetobacter baumannii = test: Antibacterial activity against Acinetobacter baumannii after 20 to 22 hrs by broth microdilution method; assay type: functional

MIC (Acinetobacter baumannii) [µg/mL]	Compound	Ki (Beta-lactamase 1) [pM]
–	O=C(O)c1cccc(CS(=O)(=O)C(=O)NCB(O)O)c1	1300
2 (≈ 4.09 µM)	C[C@]1(COC(=O)Cc2ccc(O)c(O)c2)[C@H](C(=O)O)N2C(=O)/C(=C/c3ccccn3)[C@H]2S1(=O)=O	–
–	O=C(NCB(O)O)S(=O)(=O)c1cc(-c2nnn[nH]2)cc(C(F)(F)F)c1	50
–	O=C(NCB(O)O)S(=O)(=O)c1cc(Cl)cc(-c2nnn[nH]2)c1	200
–	O=C(NCB(O)O)S(=O)(=O)c1ccnc(-c2nnn[nH]2)c1	800
